Laboratory results published in ChEMBL document CHEMBL1201862, “PubChem BioAssay data set” (2004).
Values joined by “and” are separate entries in the source; they are usually repeats but may differ in a detail not shown here. Identical values can stand only once. Active and inactive are the calls of the source.

What was measured:
cells [1] = assay type: functional, cell-based
H4 = experiment: Luminescence Cell-Based Dose Response HTS to Identify Activators of 5'UTR Stem-Loop Driven Prion Protein mRNA Translation in H4 Neuroglioblastoma Cells. [Related pubchem assays: 1829 (Project Summary), 1814 (Primary HTS)]; assay type: functional; settings: Homo sapiens
Cytochrome P450 2D6 = Cytochrome P450 2D6 (Homo sapiens, UniProt P10635);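 also: CYP2D6 member of a cytochrome P450 panel assay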
[2] = Luminescence Cell-Based Dose Confirmation HTS to Identify Activators of 5'UTR Stem-Loop Driven Alpha-Synuclein mRNA Translation in H4 Neuroglioblastoma Cells. [Related pubchem assays: 1829 (Project Summary), 1814 (Primary HTS)]; assay type: functional
[3] = Luminescence Cell-Based Dose Response HTS to Identify Activators of Luciferase Translation or Activity in H4 […] Cells. [Related pubchem assays: 1829 (Project Summary), 1814 (Primary HTS)]; assay type: functional
Cytochrome P450 2C19 = Cytochrome P450 2C19 (Homo sapiens, UniProt P33261); experiment: Cytochrome panel assay with activity outcomes. Panel member name: p450-cyp2c19 Compounds with AC50 equal or less than 10 uM are considered active; assay type: functional; settings: read-out: AC50
[4] = molecular target: T1, DNA repair and recombination protein RAD54-like (Homo sapiens, UniProt Q92698); experiment: inhibitors of human RAD54 branch migration, confirmation, biochemical, fluorescence, cherry-picked samples, dose series (AID 651657); assay type: functional
T1 sequence (Q92698 whole entry): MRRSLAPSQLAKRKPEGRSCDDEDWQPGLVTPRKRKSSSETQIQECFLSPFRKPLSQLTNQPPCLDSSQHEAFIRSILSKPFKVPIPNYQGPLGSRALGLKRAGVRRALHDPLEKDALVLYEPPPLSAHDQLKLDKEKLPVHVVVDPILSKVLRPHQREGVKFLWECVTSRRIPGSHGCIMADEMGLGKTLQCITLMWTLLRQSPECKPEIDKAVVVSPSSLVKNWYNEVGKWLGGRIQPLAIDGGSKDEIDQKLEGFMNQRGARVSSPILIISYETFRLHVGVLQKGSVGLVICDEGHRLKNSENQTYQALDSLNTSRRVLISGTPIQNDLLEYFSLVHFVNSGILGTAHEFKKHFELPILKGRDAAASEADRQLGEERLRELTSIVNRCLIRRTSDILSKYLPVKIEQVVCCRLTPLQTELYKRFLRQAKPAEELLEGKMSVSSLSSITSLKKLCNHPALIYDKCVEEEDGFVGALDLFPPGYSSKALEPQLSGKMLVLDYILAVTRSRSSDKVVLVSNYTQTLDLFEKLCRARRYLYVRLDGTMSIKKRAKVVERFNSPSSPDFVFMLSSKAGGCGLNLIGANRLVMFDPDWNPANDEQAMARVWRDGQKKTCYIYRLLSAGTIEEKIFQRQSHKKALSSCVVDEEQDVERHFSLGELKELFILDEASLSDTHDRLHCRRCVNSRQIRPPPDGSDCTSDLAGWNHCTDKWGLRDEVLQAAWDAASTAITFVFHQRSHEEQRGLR

cells [5] = assay type: functional, cell-based; remark: listed apart in the source
[6] = DNA binding of candidate compounds, dose response, artefact control for RAD54 inhibitor project, biochemical, fluorescence polarization, cherry-pick (AID 651673); assay type: functional
[7] = molecular target: Nuclear receptor subfamily 5 group A member 2 (Homo sapiens, UniProt O00482); assay type: functional, cell-based;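 also: HEK293T cells transfected with LRH-1 and a StAR promoter luciferase reporter; potency for inhibitors that lower LRH-1 driven reporter light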
Steroidogenic factor 1 = Steroidogenic factor 1 (Homo sapiens, UniProt Q13285); experiment: Counterscreen for inverse agonists of the liver receptor homolog-1 (LRH-1; NR5A2): Luminescence-based cell-based high throughput dose response assay to identify inverse agonists of the Steroidogenic Factor 1 Nuclear Receptor (SF1; NR5A1).; assay type: functional
[8] = StAR promoter reporter inhibition counter-screen, dose response, counter-screen for LRH-1 inverse agonist project, cell-based, luminescence, luciferase reporter (AID 651969); assay type: functional
Cryptococcus neoformans [9] = experiment: Cryptococcus growth inhibition by alamar blue – cell lysis, cherry-picks, replicate tests, mechanism study for C. neoformans antifungal project, dose response (AID 686999); assay type: functional, organism-based
Cryptococcus neoformans [10] = experiment: PubChem AID 686997; assay type: functional, organism-based
Beta-lactamase [11] = molecular target: T2, Beta-lactamase (Pseudomonas aeruginosa, UniProt Q79MP6); experiment: IMP-1 metallo-beta-lactamase inhibitors, dose response, selectivity assay for VIM-2 inhibitor project, biochemical, epi-absorbance (AID 1920)
Beta-lactamase [12] = molecular target: T2, Beta-lactamase; experiment: […] counterscreen for selective VIM-2 inhibitors: dose response biochemical high throughput screening assay to identify inhibitors of IMP-1 metallo-beta-lactamase.
Beta-lactamase [13] = molecular target: Beta-lactamase (Salmonella choleraesuis (strain SC-B67), UniProt Q5J463); experiment: Epi-absorbance-based counterscreen for selective VIM-2 inhibitors: dose response biochemical high throughput screening assay to identify inhibitors of TEM-1 serine-beta-lactamase.
[14] = Counterscreen for […] of the human trace amine associated receptor 1 (TAAR1): Fluorescence-based cell-based high throughput dose response assay to identify nonselective Ga16 agonists.; assay type: functional
[15] = Counterscreen for antagonists of the human trace amine associated receptor 1 (hTAAR1): Fluorescence-based cell-based high throughput dose response assay to identify nonselective Ga16 antagonists.; assay type: functional
HeLa = experiment: HeLa cell cytotoxicity, dose response, cytotoxicity control, ATP luminescence, cherry-pick samples (AID 687004); assay type: functional, cell-based; settings: Homo sapiens
[16] = molecular target: T3, Ubiquitin-conjugating enzyme E2 N (Homo sapiens, UniProt P61088); assay type: functional;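 also: Dose-response confirmation in a TR-FRET assay detecting UBC13-driven polyubiquitin chain formation, inhibition measured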
T3 sequence (P61088 whole entry): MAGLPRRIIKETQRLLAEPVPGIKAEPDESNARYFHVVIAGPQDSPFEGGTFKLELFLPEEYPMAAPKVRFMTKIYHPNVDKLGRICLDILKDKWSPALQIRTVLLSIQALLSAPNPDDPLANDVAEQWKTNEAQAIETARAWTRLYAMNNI

[17] = molecular target: DNA repair protein RAD52 homolog (Homo sapiens, UniProt P43351); assay type: functional, biochemical
[18] = molecular target: Induced myeloid leukemia cell differentiation protein Mcl-1 (Homo sapiens, UniProt Q07820); assay type: functional
[19] = molecular target: Matrix metalloproteinase-14 (Homo sapiens, UniProt P50281); experiment: Dose Response confirmation of uHTS hits for a small molecule inhibitors of MT1-MMP activation in a fluorescence assay set 2.; assay type: functional
Vero = Vero cell cytotoxicity, cytotoxicity control for flavivirus capping enzyme inhibitors (AID 588742); assay type: functional; settings: Chlorocebus sabaeus
CHO = experiment: cytotoxicity in TLR9-MyD88 CHO cells, dose response, cytotoxicity control for TLR9-MyD88 binding inhibitor project, cell-based, luminescence (AID 588339); assay type: functional, hamster; settings: Cricetulus griseus;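 also: CHO cells stably coexpressing TLR9 and MyD88 fusions from primary screen; compound exposure lasted 48 hours before viability readout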
[20] = non-specific cell cytotoxicity, dose response, cytotoxicity control for PAX8 inhibitor project, plate reader, dry powder samples (AID 743021); assay type: functional, cell-based
Genome polyprotein = Genome polyprotein (dengue virus type 2, UniProt P29990); experiment: Dengue-2 NS5 methyltransferase inhibitors, primary screen, biochemical, confirmation dose response (AID 588689); assay type: functional
[21] = human group III sPLA2 inhibitors, dose response, biochemical, QFRET, IC50 (AID 743457);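 also: green fluorescence rise as the enzyme cleaves BODIPY PC-A2 in liposomes; potency for inhibition of the enzyme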
[22] = molecular target: T4, Polyadenylate-binding protein 1 (Homo sapiens, UniProt P11940); experiment: PABP1 MLLE–PAM2 binding inhibitor potency, dose response, biochemical, fluorescence polarization, FITC-PAM2 peptide (AID 602259); assay type: functional; settings: read-out: IC50_Mean
HEK293 = experiment: inhibitors of LMP1-driven NF-kB reporter, dose response, cell-based, HEK293, luciferase, cherry-pick (AID 588343); assay type: functional; settings: Homo sapiens
Beta Lactamase = Beta Lactamase (Pseudomonas aeruginosa, UniProt Q932Y6); experiment: beta-lactamase reporter inhibitor potency, dose response, artefact control for TLR9-MyD88 binding inhibitor project, BLA reporter cells, FRET fluorescence (AID 588341); assay type: cell-based;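 also: cell based assay in CHO-K1 cells stably expressing beta-lactamase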
Paired box protein Pax-8 = Paired box protein Pax-8 (Homo sapiens, UniProt Q06710); experiment: inhibitors of PAX8-driven TPO luciferase reporter, dose response, RMG-I cells, cherry-pick (AID 687027); assay type: functional, cell-based;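 also: luciferase reporter driven by Pax8 target thyroperoxidase promoter measured by SteadyGlo luminescence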
[23] = molecular target: T4, Polyadenylate-binding protein 1; experiment: PABP1 MLLE–PAM2 interaction inhibitors, dose response, miRNA deadenylation inhibitor project, biochemical, fluorescence polarization, Cy5-PAM2 peptide, secondary (AID 602260); assay type: functional; settings: read-out: IC50_Mean
[24] = molecular target: Fructose-bisphosphate aldolase (Mycobacterium tuberculosis, UniProt P9WQA3); experiment: Fluorescence-based biochemical high throughput dose response assay for inhibitors of the fructose-bisphosphate aldolase (FBA) of M. tuberculosis.; assay type: functional
[25] = molecular target: T5, Sentrin-specific protease 1 (Homo sapiens, UniProt Q9P0U3); experiment: potency of human SENP1 inhibitors, dose response, biochemical, kinetic FRET (AID 651697); assay type: functional; settings: read-out: IC50_Mean
[26] = molecular target: T5, Sentrin-specific protease 1; experiment: Dose response confirmation of small molecule inhibitors of the catalytic domain of the SUMO protease, SENP1 in a FRET assay.; assay type: functional; settings: read-out: IC50_Mean
[27] = HEK293 cell viability, dose response, counter-screen for EBV LMP1 inhibitor project, dry powder, set 2 (AID 624374); assay type: functional
[28] = lymphoblastoid cell cytotoxicity, dose response, cytotoxicity control, plate reader, dry powder, set 2 (AID 624367); assay type: functional
[29] = LMP1-driven NF-kB reporter inhibition, dose response, cell-based, luciferase reporter, luminescence, dry powder, set 2 (AID 624376); assay type: functional
Albumin = Albumin (Bos taurus, UniProt P02769); experiment: Counterscreen for inhibitors of T-cell receptor (TCR)-CD3 interaction: Fluorescence-based biochemical high throughput dose response assay to identify inhibitors of T-cell receptor (TCR)-CD3 interaction using a TAMRA-labeled BSA probe.; assay type: functional
Albumin, sequence (P02769 whole entry): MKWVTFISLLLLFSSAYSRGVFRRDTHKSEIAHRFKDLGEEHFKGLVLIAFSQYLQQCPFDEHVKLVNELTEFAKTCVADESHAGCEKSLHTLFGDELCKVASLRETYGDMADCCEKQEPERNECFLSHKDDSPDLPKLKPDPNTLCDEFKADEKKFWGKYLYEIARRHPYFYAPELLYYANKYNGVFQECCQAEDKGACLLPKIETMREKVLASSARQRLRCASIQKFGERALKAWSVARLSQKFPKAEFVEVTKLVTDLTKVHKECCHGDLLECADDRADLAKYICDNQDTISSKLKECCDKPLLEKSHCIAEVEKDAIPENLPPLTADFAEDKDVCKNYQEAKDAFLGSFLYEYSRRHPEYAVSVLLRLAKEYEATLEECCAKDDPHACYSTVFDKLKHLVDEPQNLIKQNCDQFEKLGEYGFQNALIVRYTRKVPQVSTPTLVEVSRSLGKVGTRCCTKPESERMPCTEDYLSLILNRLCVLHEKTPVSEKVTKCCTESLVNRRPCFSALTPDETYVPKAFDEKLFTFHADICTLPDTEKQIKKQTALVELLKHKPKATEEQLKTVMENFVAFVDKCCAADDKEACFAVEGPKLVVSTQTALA

T2 sequence (Q79MP6 whole entry): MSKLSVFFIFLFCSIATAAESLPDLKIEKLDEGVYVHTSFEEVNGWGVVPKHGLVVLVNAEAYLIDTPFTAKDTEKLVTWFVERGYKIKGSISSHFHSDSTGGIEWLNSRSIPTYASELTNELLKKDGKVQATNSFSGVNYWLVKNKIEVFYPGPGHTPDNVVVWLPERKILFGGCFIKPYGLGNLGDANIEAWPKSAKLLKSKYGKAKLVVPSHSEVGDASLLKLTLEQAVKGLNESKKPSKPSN
T5 sequence (Q9P0U3 whole entry, the tested form may be a part): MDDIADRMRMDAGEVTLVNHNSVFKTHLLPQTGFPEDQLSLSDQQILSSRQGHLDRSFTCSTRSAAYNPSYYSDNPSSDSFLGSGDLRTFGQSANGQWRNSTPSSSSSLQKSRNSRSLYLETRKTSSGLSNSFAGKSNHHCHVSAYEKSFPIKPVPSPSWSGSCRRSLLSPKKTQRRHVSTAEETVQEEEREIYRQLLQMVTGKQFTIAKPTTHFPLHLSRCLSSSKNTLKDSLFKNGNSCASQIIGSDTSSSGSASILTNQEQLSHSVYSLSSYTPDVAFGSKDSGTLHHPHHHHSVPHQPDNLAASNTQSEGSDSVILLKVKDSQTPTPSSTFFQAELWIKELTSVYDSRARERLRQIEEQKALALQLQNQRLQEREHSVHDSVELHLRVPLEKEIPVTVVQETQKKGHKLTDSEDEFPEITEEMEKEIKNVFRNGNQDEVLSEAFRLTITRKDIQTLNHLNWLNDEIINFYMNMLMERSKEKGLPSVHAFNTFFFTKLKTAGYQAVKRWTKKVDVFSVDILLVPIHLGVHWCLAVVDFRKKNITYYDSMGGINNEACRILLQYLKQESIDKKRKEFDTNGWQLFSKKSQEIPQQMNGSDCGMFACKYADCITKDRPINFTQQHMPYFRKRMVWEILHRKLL
T4 sequence (P11940 whole entry): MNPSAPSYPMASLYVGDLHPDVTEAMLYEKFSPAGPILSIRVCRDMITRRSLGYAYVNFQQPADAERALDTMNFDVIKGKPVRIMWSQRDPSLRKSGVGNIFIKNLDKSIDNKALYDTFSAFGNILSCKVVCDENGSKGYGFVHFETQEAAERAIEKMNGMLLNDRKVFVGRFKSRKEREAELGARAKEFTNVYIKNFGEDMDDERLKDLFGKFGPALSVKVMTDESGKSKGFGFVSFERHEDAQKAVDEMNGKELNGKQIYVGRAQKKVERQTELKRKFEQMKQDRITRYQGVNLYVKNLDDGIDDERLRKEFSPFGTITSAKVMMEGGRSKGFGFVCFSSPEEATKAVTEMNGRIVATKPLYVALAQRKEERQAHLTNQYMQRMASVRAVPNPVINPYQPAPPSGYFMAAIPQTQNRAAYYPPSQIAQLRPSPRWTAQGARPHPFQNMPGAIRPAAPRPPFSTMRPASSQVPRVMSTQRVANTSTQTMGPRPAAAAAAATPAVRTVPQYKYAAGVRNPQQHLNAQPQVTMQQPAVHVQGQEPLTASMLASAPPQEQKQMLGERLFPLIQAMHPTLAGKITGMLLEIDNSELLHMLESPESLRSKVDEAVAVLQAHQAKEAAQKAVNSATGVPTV
Cytochrome P450 2D6, sequence (P10635 whole entry): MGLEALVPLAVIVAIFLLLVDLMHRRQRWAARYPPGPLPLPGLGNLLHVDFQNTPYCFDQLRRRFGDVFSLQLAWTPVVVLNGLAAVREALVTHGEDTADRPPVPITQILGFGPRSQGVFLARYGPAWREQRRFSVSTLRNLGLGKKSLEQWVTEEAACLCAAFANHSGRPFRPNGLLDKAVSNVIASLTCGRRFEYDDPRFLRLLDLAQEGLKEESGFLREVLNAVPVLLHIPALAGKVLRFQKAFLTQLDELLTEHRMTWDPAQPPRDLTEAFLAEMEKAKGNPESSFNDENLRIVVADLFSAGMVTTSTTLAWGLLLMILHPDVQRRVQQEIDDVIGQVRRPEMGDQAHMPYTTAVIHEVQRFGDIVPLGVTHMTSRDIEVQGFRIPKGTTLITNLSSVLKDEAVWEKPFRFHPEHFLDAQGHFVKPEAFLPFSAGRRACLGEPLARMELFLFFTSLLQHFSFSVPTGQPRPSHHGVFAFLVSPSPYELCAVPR
Cytochrome P450 2C19, sequence (P33261 whole entry): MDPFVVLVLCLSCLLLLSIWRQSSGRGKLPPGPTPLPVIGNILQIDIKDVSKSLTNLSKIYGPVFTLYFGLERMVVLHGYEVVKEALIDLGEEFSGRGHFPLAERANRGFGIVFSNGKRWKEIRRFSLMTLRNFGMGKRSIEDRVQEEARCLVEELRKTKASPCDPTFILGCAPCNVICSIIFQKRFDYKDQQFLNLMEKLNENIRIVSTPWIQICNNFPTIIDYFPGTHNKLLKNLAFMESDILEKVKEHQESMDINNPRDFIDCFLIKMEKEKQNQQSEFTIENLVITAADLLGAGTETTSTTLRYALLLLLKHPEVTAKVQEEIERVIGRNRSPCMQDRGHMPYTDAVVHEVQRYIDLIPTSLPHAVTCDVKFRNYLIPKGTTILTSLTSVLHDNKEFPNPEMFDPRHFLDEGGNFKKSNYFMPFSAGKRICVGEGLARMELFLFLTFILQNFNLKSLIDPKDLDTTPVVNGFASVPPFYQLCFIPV
Paired box protein Pax-8, sequence (Q06710 whole entry): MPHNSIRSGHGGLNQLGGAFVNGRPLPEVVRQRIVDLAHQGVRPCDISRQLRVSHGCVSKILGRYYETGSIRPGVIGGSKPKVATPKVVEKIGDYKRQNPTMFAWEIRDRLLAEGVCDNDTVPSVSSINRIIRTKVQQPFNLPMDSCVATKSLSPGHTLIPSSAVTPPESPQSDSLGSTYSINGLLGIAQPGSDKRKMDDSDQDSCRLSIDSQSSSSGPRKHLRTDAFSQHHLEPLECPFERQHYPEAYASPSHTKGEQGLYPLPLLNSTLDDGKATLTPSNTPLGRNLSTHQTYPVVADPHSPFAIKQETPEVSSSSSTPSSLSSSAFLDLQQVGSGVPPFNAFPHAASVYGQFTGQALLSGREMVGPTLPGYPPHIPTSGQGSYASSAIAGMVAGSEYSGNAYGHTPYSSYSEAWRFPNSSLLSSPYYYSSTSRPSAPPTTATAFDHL
Steroidogenic factor 1, sequence (Q13285 whole entry): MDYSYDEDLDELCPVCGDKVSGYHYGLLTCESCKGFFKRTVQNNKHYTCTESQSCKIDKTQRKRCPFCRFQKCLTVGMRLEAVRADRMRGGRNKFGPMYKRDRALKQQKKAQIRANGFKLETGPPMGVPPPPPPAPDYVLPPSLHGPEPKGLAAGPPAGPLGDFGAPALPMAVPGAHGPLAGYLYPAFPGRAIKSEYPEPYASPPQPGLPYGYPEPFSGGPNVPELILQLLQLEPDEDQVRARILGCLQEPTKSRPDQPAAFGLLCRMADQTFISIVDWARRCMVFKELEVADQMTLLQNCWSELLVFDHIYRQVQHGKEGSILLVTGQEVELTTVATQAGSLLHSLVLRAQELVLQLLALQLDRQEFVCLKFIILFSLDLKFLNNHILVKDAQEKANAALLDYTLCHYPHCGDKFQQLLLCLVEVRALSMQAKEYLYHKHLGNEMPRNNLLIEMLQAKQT
Nuclear receptor subfamily 5 group A member 2, sequence (O00482 whole entry): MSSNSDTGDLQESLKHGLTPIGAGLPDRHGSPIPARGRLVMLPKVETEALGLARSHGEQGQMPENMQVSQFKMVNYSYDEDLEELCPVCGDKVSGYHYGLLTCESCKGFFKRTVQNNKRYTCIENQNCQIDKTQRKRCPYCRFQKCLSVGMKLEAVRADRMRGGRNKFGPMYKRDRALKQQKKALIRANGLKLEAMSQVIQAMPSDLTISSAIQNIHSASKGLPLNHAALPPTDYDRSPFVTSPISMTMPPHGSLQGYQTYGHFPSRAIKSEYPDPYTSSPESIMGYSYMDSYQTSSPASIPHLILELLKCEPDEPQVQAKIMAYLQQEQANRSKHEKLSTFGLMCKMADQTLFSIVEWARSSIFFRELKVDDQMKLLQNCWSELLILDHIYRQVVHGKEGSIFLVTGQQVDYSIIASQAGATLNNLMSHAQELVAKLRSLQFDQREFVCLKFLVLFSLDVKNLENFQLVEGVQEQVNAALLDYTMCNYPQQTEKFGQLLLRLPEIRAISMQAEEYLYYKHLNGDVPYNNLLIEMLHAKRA
Beta Lactamase, sequence (Q932Y6 whole entry): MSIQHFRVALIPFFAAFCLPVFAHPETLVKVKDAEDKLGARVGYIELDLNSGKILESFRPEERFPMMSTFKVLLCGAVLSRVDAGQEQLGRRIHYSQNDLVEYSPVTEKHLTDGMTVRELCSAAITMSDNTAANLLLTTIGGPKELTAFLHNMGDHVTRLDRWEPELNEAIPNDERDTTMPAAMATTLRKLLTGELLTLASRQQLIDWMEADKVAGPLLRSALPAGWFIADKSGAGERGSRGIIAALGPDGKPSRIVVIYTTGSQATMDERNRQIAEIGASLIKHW

SMILES: Cc1cc(C)c2c(N)c3ccccc3nc2n1
- EC50 (cells [1]): 32.3 µM (active)
- EC50 (H4): > 120 µM (not active)
- AC50 (Cytochrome P450 2D6): 20 µM (inconclusive)
- EC50 [2]: 3.6 µM (active)
- EC50 [3]: 8.34 µM (active)
- AC50 (Cytochrome P450 2C19): 5.62 µM (inconclusive)
- AC50 [4]: 5.7 µM (active)
- EC50 (cells [5]): > 350 µM (not active)
- AC50 [6]: 41.4 µM (active)

SMILES: CCCc1cc(=O)oc2c(C)c(OCC(=O)NCCN3CCOCC3)ccc12
- IC50 [7]: 35.9 µM (inactive)
- IC50 (Steroidogenic factor 1): 12.4 µM (inactive)
- IC50 [8]: 35.9 µM (inactive)

SMILES: COC(=O)C1=C(C)N(Cc2ccccc2)C(=S)N[C@H]1c1ccc(Br)cc1
- AC50 (Cryptococcus neoformans [9]): 42.2 µM (active)
- AC50 (Cryptococcus neoformans [10]): 50.4 µM (active) and 14.1 µM (active)

SMILES: O=C(CSc1nnc(NC(=O)C2CCCCC2)s1)NCc1ccco1
- IC50 (Beta-lactamase [11]): > 59.6 µM (inactive)
- IC50 (Beta-lactamase [12]): > 59.6 µM (inactive)
- IC50 (Beta-lactamase [13]): > 59.6 µM (inactive)

SMILES: O=C(CCC(=O)N1CCOCC1)NCCc1ccc(F)cc1
- EC50 [14]: > 29.9 µM (inactive)
- IC50 [15]: > 29.9 µM (inactive)

SMILES: CN1CCN(CCCNC(=O)c2ccc(/C=C3\Oc4ccccc4N(Cc4ccccc4F)C3=O)cc2)CC1
- AC50 (HeLa): 17 µM (active)
- IC50 [16]: > 20 µM (inactive)
- AC50 [17]: 8.16 µM (active)

SMILES: Cc1ccc(C(=O)NNc2c3ccccc3nc3ccccc23)cc1
- IC50 [18]: 5.38 µM (active)
- IC50 [19]: > 80 µM (inactive)

SMILES: COc1ccccc1N(C(C)=O)C1=C(Cl)C(=O)c2ccccc2C1=O
- CC50 (Vero): 22.6 µM (active)
- IC50 (CHO): 1.03 µM (active)
- AC50 [20]: 27.8 µM (active)
- IC50 (Genome polyprotein): 9.2 µM (active)
- IC50 [21]: > 122 µM (inactive)
- IC50 [22]: > 66 µM (inactive)
- AC50 (HEK293): 5.98 µM (active)
- IC50 (Beta Lactamase): 5.37 µM (active)
- AC50 (Paired box protein Pax-8): 3.59 µM (active)
- IC50 [23]: > 66 µM (inactive)

SMILES: CNc1ccc2ncc(-c3ccc(OC)c(OC)c3)n2n1
- IC50 [24]: 1.69 µM (active)

SMILES: Oc1nc2cc3ccccc3cc2nc1-c1nnnn1C1CCCC1
- IC50 [25]: 2.21 µM (active)
- IC50 [26]: 1.05 µM (active)

SMILES: O=C(C[C@H]1C[C@H]2c3cc(NS(=O)(=O)c4ccc(F)cc4)ccc3O[C@H]2[C@H](CO)O1)NCc1ccc(Oc2ccccc2)cc1
- AbsAC35 [27]: 70.4 µM
- AbsAC35 [28]: 45.43 µM

SMILES: CC(C)(C)[S@@+]([O-])N1Cc2cc(C(=O)NCc3ccccn3)nc(-c3cccc(-c4ccccc4F)c3)c2[C@H]1CCO
- AbsAC35 [29]: 49.61 µM

SMILES: Cn1c(SCC(=O)NNC(=O)c2ccccc2O)nnc1-c1ccccc1
- IC50 (Albumin): > 94.2 µM (inactive)
